Laboratory results as given in patent US9737075B2, “Synergistic benzoxaborole-containing anti-fungicidal composition” (The Penn State Research Foundation, priority 2015, dated 2017).
In brackets after ≈: the same amount, converted by molar mass. Read-outs that look alike come from different tables or passages of the source.

Legend:
Format in all cases: cell-based
Mucor sp. = assay: Broth microdilution MIC of individual antifungals; settings: individual antifungal, 25% PDB, about 25° C., 72 hours, range over N independent triplicate studies
Aspergillus fumigatus = assay: Broth microdilution MIC of individual antifungals; settings: for MIC: read-out: Independent MIC
Phytophthora pini = assay: Broth microdilution MIC of individual antifungals; settings: individual antifungal, 25% PDB, about 25° C., 72 hours, range over N independent triplicate studies
Penicillium chrysogenum = assay: Broth microdilution MIC of individual antifungals; settings: individual antifungal, 25% PDB, about 25° C., 72 hours, range over N independent triplicate studies
Botrytis cinerea B17 = assay: Broth microdilution MIC of individual antifungals; settings: Botrytis cinerea B17, individual antifungal, 25% PDB, about 25° C., 72 hours, range over N independent triplicate studies; for MIC: read-out: Independent MIC
[1] = tested on: Mycosphaerella zeae-maydis; assay: Broth microdilution MIC of individual antifungals; settings: individual antifungal, 25% PDB, about 25° C., 72 hours, range over N independent triplicate studies; for MIC: Didymella maydis
Pythium aphanodermatum = assay: Broth microdilution MIC of individual antifungals; settings: individual antifungal, 25% PDB, about 25° C., 72 hours, range over N independent triplicate studies
Fusarium graminearum = assay: microbe, parasite or virus in culture; settings: for MIC: 72 h, read-out: Independent MIC
Stachybotrys chartarum = assay: Broth microdilution MIC of individual antifungals; settings: individual antifungal, 25% PDB, about 25° C., 72 hours, range over N independent triplicate studies; for MIC: read-out: Independent MIC
Alternaria solani = assay: Broth microdilution MIC of individual antifungals; settings: for MIC: read-out: Independent MIC
Botrytis cinerea 10-1728 = assay: Broth microdilution MIC of individual antifungals; settings: for MIC: read-out: Independent MIC
Aspergillus flavus = assay: Broth microdilution MIC of individual antifungals; settings: for MIC: read-out: Independent MIC
Aureobasidium pullulans = assay: Broth microdilution MIC of individual antifungals; settings: individual antifungal, 25% PDB, about 25° C., 72 hours, range over N independent triplicate studies, read-out: Independent MIC
Aspergillus niger = assay: Broth microdilution MIC of individual antifungals; settings: individual antifungal, 25% PDB, about 25° C., 72 hours, range over N independent triplicate studies; for MIC: read-out: Independent MIC
[2] = tested on: Fusarium solani f. sp. pisi (MP VI); assay: Broth microdilution MIC of individual antifungals; settings: Fusarium solani f. sp. pisi (MP VI), individual antifungal, 25% PDB, about 25° C., 72 hours, range over N independent triplicate studies
Fusarium verticillioides = assay: Broth microdilution MIC of individual antifungals; settings: for MIC: read-out: Independent MIC
Rhizopus sp. = assay: Broth microdilution MIC of individual antifungals; settings: Rhizopus sp., individual antifungal, 25% PDB, about 25° C., 72 hours, range over N independent triplicate studies; for MIC: Rhizopus, 72 h, read-out: Independent MIC
[3] = tested on: Fusarium oxysporum f. sp. lycopersici; assay: Broth microdilution MIC of individual antifungals; settings: individual antifungal, 25% PDB, about 25° C., 72 hours, range over N independent triplicate studies
Fusarium oxysporum ST33 = assay: Broth microdilution MIC of individual antifungals; settings: individual antifungal, 25% PDB, about 25° C., 72 hours, range over N independent triplicate studies
Sclerotinia homoeocarpa = assay: Broth microdilution MIC of individual antifungals; settings: for MIC: Clarireedia homoeocarpa, read-out: Independent MIC
[4] = tested on: Colletotrichum orbiculare; assay: Broth microdilution MIC of individual antifungals; settings: individual antifungal, 25% PDB, about 25° C., 72 hours, range over N independent triplicate studies; for MIC: read-out: Independent MIC
Rhizoctonia solani = assay: Broth microdilution MIC of individual antifungals; settings: for MIC: read-out: Independent MIC
Candida albicans = assay: Broth microdilution MIC of individual antifungals; settings: individual antifungal, 25% PDB, about 25° C., 72 hours, range over N independent triplicate studies
Magnaporthe grisea = assay: microbe, parasite or virus in culture; settings: for MIC: Pyricularia oryzae, 72 h, read-out: Independent MIC
[5] = individual antifungal, 25% PDB, about 25° C., 72 hours, range over N independent triplicate studies
[6] = Botrytis cinerea 10-1728, individual antifungal, 25% PDB, about 25° C., 72 hours, range over N independent triplicate studies
[7] = Sclerotinia homoeocarpa, individual antifungal, 25% PDB, about 25° C., 72 hours, range over N independent triplicate studies
[8] = 101728, Botrytis cinerea 10-1728, individual antifungal, 25% PDB, about 25° C., 72 hours, range over N independent triplicate studies

CO/C=C(/C(=O)OC)c1ccccc1Oc1cc(Oc2ccccc2C#N)ncn1 [Azoxystrobin, azoxystrobin]
Independent MIC (Mucor sp.): 200 µg/mL
Independent MIC (Aspergillus fumigatus; [5]): (50-100) μg/mL
Independent MIC (Phytophthora pini): 100 µg/mL
Independent MIC (Penicillium chrysogenum): (0.39-1.5) μg/mL
Independent MIC (Botrytis cinerea B17): (12.5-25)^ μg/mL
Independent MIC [1]: 20 µg/mL
Independent MIC (Pythium aphanodermatum): 6.25 µg/mL
Independent MIC (Fusarium graminearum; Fusarium graminearum, individual antifungal, 25% PDB, about 25° C., 72 hours, range over N independent triplicate studies): 400 µg/mL
Independent MIC (Stachybotrys chartarum): (25-50) μg/mL
Independent MIC (Alternaria solani; [5]): 100 µg/mL
Independent MIC (Botrytis cinerea 10-1728; [6]): (110-400) μg/mL

Nc1ccc2c(c1)COB2O [B2, 5-Amino-1,3-dihydro-2,1-benzoxaborol-1-ol]
MIC (Mucor sp.): > 32 µg/mL
MIC (Aspergillus fumigatus; [5]): > 32 µg/mL
MIC (Aspergillus flavus; [5]): > 32 µg/mL
MIC (Aureobasidium pullulans): > 32 µg/mL
MIC (Aspergillus niger): > 32 µg/mL
MIC (Botrytis cinerea B17): > 32 µg/mL
MIC ([2]; read-out: Independent MIC): > 32 µg/mL
MIC (Fusarium verticillioides; [5]): > 32 µg/mL
MIC [1]: > 32 µg/mL
MIC (Rhizopus sp.): > 32 µg/mL
MIC [3]: > 32 µg/mL
MIC (Stachybotrys chartarum): > 32 µg/mL
MIC (Fusarium oxysporum ST33): > 32 µg/mL
MIC (Alternaria solani; [5]): > 32 µg/mL
MIC (Sclerotinia homoeocarpa; [7]): > 32 µg/mL
MIC (Botrytis cinerea 10-1728; [8]): > 32 µg/mL

Cc1ccc(-c2c(Cl)nc(C#N)n2S(=O)(=O)N(C)C)cc1 [Cyazofamid, cyazofamid]
MIC [4]: 50 to 100 µg/mL
MIC (Fusarium verticillioides; [5]): 200 µg/mL
MIC [1]: 100 µg/mL
MIC (Fusarium graminearum; Fusarium graminearum): 100 µg/mL (≈ 308 µM)
MIC (Rhizoctonia solani; [5]): 50 to 100 µg/mL
MIC (Sclerotinia homoeocarpa; [7]): 100 µg/mL
MIC (Botrytis cinerea 10-1728; [8]): 200 to 400 µg/mL

CC(C1CC1)C(O)(Cn1cncn1)c1ccc(Cl)cc1 (stereo not drawn) [Cyproconazole, cyproconazole]
MIC (Mucor sp.): 100 to 200 µg/mL
MIC (Candida albicans; read-out: Independent MIC): 100 to 400 µg/mL
MIC [4]: 6.25 to 12.5 µg/mL
MIC (Aspergillus fumigatus; [5]): 12.5 to 25 µg/mL
MIC (Aspergillus flavus; [5]): 50 to 100 µg/mL
MIC (Aspergillus niger): 25 µg/mL
MIC (Penicillium chrysogenum; read-out: Independent MIC): 100 µg/mL
MIC (Fusarium verticillioides; [5]): 3 to 3.12 µg/mL
MIC [1]: 3.12 to 6 µg/mL
MIC (Rhizopus sp.): 12.5 to 50 µg/mL
MIC (Rhizoctonia solani; [5]): 6.25 to 12.5 µg/mL
MIC (Sclerotinia homoeocarpa; [7]): 1.56 to 3.12 µg/mL
MIC (Botrytis cinerea 10-1728; [8]): 0.78 to 2 µg/mL

CCOP(=O)(Sc1ccccc1)Sc1ccccc1 [Edifenphos, edifenphos]
MIC (Mucor sp.): 50 to 100 µg/mL
MIC (Magnaporthe grisea): 6.25 µg/mL (≈ 20.1 µM)
MIC (Aspergillus fumigatus; 72 h): 200 µg/mL
MIC (Phytophthora pini): 100 µg/mL
MIC (Fusarium verticillioides; 72 h): 200 to 400 µg/mL
MIC [1]: 200 to 400 µg/mL
MIC (Rhizoctonia solani; 72 h): 200 to 400 µg/mL
MIC (Alternaria solani; 72 h): 200 µg/mL
MIC (Sclerotinia homoeocarpa; 72 h): 3.12 to 6.25 µg/mL
MIC (Botrytis cinerea 10-1728; Botrytis cinerea, 101728, 72 h): 100 to 200 µg/mL

CC1(C(=O)Nc2ccc(O)c(Cl)c2Cl)CCCCC1 [Fenhexamid, fenhexamid]
MIC (Mucor sp.): 100 µg/mL
MIC (Magnaporthe grisea): 3.12 µg/mL (≈ 10.3 µM)
MIC [4]: 100 to 200 µg/mL
MIC (Aspergillus fumigatus; [5]): 400 µg/mL
MIC (Aspergillus flavus; 72 h): 3.12 to 6.25 µg/mL
MIC (Aureobasidium pullulans): 100 µg/mL
MIC (Phytophthora pini): 50 µg/mL
MIC (Botrytis cinerea B17): 4 µg/mL
MIC [1]: 100 to 200 µg/mL
MIC (Pythium aphanodermatum): 0.78 to 0.8 µg/mL
MIC (Fusarium graminearum; Fusarium graminearum): 25 to 50 µg/mL (≈ 82.7 to 165 µM)
MIC (Stachybotrys chartarum): 12.5 µg/mL
MIC (Alternaria solani; [5]): 100 to 200 µg/mL
MIC (Sclerotinia homoeocarpa; [7]): 64 µg/mL
MIC (Botrytis cinerea 10-1728; [8]): 200 µg/mL

[Cl][Sn]([c]1ccccc1)([c]1ccccc1)[c]1ccccc1 [Fentin Chloride, fentin chloride]
Independent MIC (Mucor sp.): (1-1.56) μg/mL
Independent MIC (Candida albicans): (0.78-1.56) μg/mL
Independent MIC (Magnaporthe grisea): 1.25 µg/mL
Independent MIC [4]: 1.56 µg/mL
Independent MIC (Aspergillus fumigatus; [5]): 0.78 µg/mL
Independent MIC (Aspergillus flavus; [5]): (0.78-1) μg/mL
Independent MIC (Phytophthora pini): 0.098 µg/mL
Independent MIC (Aspergillus niger): (0.78-1) μg/mL
Independent MIC (Penicillium chrysogenum): (0.1-0.2) μg/mL
Independent MIC [2]: (0.78-3.12) μg/mL
Independent MIC (Fusarium verticillioides; [5]): (6.25-12.5) μg/mL
Independent MIC [1]: 50 µg/mL
Independent MIC (Rhizopus sp.): (0.39-0.78) μg/mL
Independent MIC (Fusarium graminearum): (50-200) μg/mL
Independent MIC (Rhizoctonia solani; [5]): (12.5-25)^ μg/mL
Independent MIC (Alternaria solani; [5]): (10-12.5) μg/mL
Independent MIC (Sclerotinia homoeocarpa; [7]): 12.5 µg/mL
Independent MIC (Botrytis cinerea 10-1728; [6]): (50-100) μg/mL
